Reference: ChEMBL document CHEMBL1124557, “Pentadienyl carboxamide derivatives as antagonists of platelet-activating factor” (J Med Chem, 1989)

Columns and labels:
Cavia porcellus [1] = assay: Ability to prevent PAF-induced bronchoconstriction in guinea pig when administered at a dose of 1 mg/kg intravenously; format: functional; conditions: route intravenous
[2] = target: Platelet-activating factor receptor (Cavia porcellus) (UniProt P21556); assay: Ability to prevent PAF-induced bronchoconstriction in guinea pig when administered intravenously; format: functional
[3] = target: Platelet-activating factor receptor (Cavia porcellus) (UniProt P21556); assay: Ability to prevent PAF-induced bronchoconstriction in guinea pig 2 hr after administration (50 mg/kg perorally); format: functional, organism-based
Cavia porcellus [4] = assay: Inhibition of PAF-induced bronchoconstriction in guinea pig 2 hr after p.o. administration.; format: functional; conditions: po, read-out: ID50 (the source's name)
[5] = system: Platelet-activating factor receptor (Canis familiaris); assay: Compound was evaluated for inhibition of platelet activating factor binding activity in dog platelets using [3H]PAF as radioligand; NA means inactive
Cavia porcellus [6] = assay: Ability to prevent PAF-induced bronchoconstriction in guinea pig 6 hr following 50 mg/kg p.o. administration.; format: functional; conditions: route oral
Cavia porcellus [7] = assay: Ability to prevent PAF-induced bronchoconstriction in guinea pig when administered dose 0.5 mg/kg intravenously; format: functional; conditions: route intravenous
Cavia porcellus [8] = assay: Inhibitory activity against bronchoconstriction in guinea pig 2 hr after peroral administration of compound; format: functional; conditions: Lung, po, read-out: ID50 (the source's name)

Chain of Platelet-activating factor receptor (Cavia porcellus) (P21556 whole entry): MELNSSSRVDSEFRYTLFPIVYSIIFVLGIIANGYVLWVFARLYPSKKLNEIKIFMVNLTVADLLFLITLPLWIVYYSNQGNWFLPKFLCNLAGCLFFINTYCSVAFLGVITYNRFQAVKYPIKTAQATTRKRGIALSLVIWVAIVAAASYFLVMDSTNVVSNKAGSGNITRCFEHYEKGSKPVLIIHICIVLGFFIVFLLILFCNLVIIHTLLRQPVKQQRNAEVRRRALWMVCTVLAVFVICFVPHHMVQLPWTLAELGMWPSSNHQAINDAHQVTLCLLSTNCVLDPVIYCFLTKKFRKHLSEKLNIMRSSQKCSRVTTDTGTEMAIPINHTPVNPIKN

Question: How did the inhibition in vivo at 1 mg/kg (Cavia porcellus [1]) turn out when COc1ccccc1C(=C/C=C/C(=O)NCCCCc1cccnc1)c1ccccc1OC was run?
Answer: Its inhibition in vivo at 1 mg/kg is 40%.

Question: For COc1ccc(/C=C/C=C/C(=O)N[C@H](C)CCCc2cccnc2)cc1, which inhibition in vivo at 1 mg/kg (Cavia porcellus [1]) is on record?
Answer: The inhibition in vivo at 1 mg/kg was -17%.

Question: For CC[C@@H](CCCc1cccnc1)NC(=O)/C=C/C=C(c1ccc(OC)cc1)c1ccc(OC)cc1, which inhibition in vivo at 1 mg/kg (Cavia porcellus [1]) is on record?
Answer: The inhibition in vivo at 1 mg/kg was 44%.

Question: How did the inhibition in vivo at 1 mg/kg (Cavia porcellus [1]) turn out when COc1ccc(/C(=C\C=C\C(=O)N[C@H](C)CCCc2cccnc2)C2CCCCC2)cc1 was run?
Answer: Its inhibition in vivo at 1 mg/kg is 18%.

Question: COc1cccc(C(=C/C=C/C(=O)NCCCCc2cccnc2)c2cccc(OC)c2)c1 was tested. Which ID50 [2] did it give?
Answer: Its ID50 is 0.36 mg/kg.

Question: What about the inhibition [3] of the same compound?
Answer: The inhibition was 31%.

Question: What about the inhibition in vivo at 1 mg/kg (Cavia porcellus [1]) of the same compound?
Answer: Its inhibition in vivo at 1 mg/kg is 69%.

Question: And the ED50 (Cavia porcellus [4])?
Answer: The ED50 was 80 mg/kg.

Question: With O=C(CCCCCC=C(c1ccccc1)c1ccccc1)NCCCCc1cccnc1 as the compound, how does the IC50 [5] read?
Answer: The IC50 was “Not Active”.

Question: How did the ID50 [2] turn out when CCCCCC(=C/C=C/C(=O)N[C@H](C)CCCc1cccnc1)CCCCC was run?
Answer: Its ID50 is 0.64 mg/kg.

Question: And the inhibition [3]?
Answer: The inhibition was 4%.

Question: And the inhibition in vivo at 1 mg/kg (Cavia porcellus [1])?
Answer: The inhibition in vivo at 1 mg/kg was 78%.

Question: Which results are given for Cc1ccc(C(=C/C=C/C(=O)N[C@H](C)CCCc2cccnc2)c2ccc(C)cc2)cc1?
Answer: ID50 [2]: 0.3 mg/kg; inhibition [3]: 91%; inhibition in vivo at 50 mg/kg (Cavia porcellus [6]): 14%; inhibition in vivo at 1 mg/kg (Cavia porcellus [1]): 97%; ED50 (Cavia porcellus [4]): 18 mg/kg

Question: How did the ID50 [2] turn out when C[C@H](CCCc1cccnc1)NC(=O)/C=C/C=C(c1cccc(F)c1)c1cccc(F)c1 was run?
Answer: Its ID50 is 0.22 mg/kg.

Question: What about the inhibition [3] of the same compound?
Answer: Its inhibition is 91%.

Question: And the inhibition in vivo at 50 mg/kg (Cavia porcellus [6])?
Answer: The inhibition in vivo at 50 mg/kg was 87%.

Question: And the inhibition in vivo at 1 mg/kg (Cavia porcellus [1])?
Answer: The inhibition in vivo at 1 mg/kg was 73%.

Question: And the ED50 (Cavia porcellus [4])?
Answer: Its ED50 is 37 mg/kg.

Question: Which inhibition in vivo at 1 mg/kg (Cavia porcellus [1]) does the source give for COc1ccc(C(=C/C=C/C(=O)N[C@@H](CCCc2cccnc2)C2CCCC2)c2ccc(OC)cc2)cc1 here?
Answer: Its inhibition in vivo at 1 mg/kg is 19%.

Question: Which ID50 [2] does the source give for CCCCC/C(=C/C=C/C(=O)N[C@H](C)CCCc1cccnc1)c1ccc(OC)cc1 here?
Answer: Its ID50 is 0.78 mg/kg.

Question: And the inhibition [3]?
Answer: Its inhibition is 13%.

Question: What about the inhibition in vivo at 1 mg/kg (Cavia porcellus [1]) of the same compound?
Answer: Its inhibition in vivo at 1 mg/kg is 57%.

Question: Which results are given for COc1ccc(C(=C/C=C/C(=O)NCCCCc2cccnc2)c2ccc(OC)c(OC)c2)cc1OC?
Answer: ID50 [2]: 0.54 mg/kg; inhibition [3]: 71%; inhibition in vivo at 50 mg/kg (Cavia porcellus [6]): 17%; inhibition in vivo at 1 mg/kg (Cavia porcellus [1]): 78%; ED50 (Cavia porcellus [4]): 27 mg/kg

Question: For O=C(CCC=C(c1ccccc1)c1ccccc1)NCCCCc1cccnc1, which inhibition in vivo at 0.5 mg/kg (Cavia porcellus [7]) is on record?
Answer: The inhibition in vivo at 0.5 mg/kg was 21%.

Question: How did the IC50 [5] turn out when O=C(CCCC=C(c1ccccc1)c1ccccc1)NCCCCc1cccnc1 was run?
Answer: The IC50 was “Not Active”.

Question: What does the source list for COc1cccc(/C(=C\C=C\C(=O)NCCCCc2cccnc2)c2cccc(F)c2)c1?
Answer: ID50 [2]: 0.46 mg/kg; inhibition [3]: 25%; inhibition in vivo at 1 mg/kg (Cavia porcellus [1]): 88%

Question: What does the source list for Cc1ccc(C(=C/C=C/C(=O)NCCCCc2cccnc2)c2ccc(C)cc2)cc1?
Answer: ID50 [2]: 0.26 mg/kg; inhibition [3]: 67%; inhibition in vivo at 50 mg/kg (Cavia porcellus [6]): 11%; inhibition in vivo at 1 mg/kg (Cavia porcellus [1]): 95%; ED50 (Cavia porcellus [4]): 43 mg/kg

Question: What does the source list for O=C(/C=C/C=C(c1ccc(F)cc1)c1ccc(F)cc1)NCCCCc1cccnc1?
Answer: ID50 [2]: 0.38 mg/kg; inhibition [3]: 89%; inhibition in vivo at 1 mg/kg (Cavia porcellus [1]): 91%; ED50 (Cavia porcellus [8]): 28 mg/kg

Question: What does the source list for CC[C@H](CCCc1cccnc1)NC(=O)/C=C/C=C(c1ccc(OC)cc1)c1ccc(OC)cc1?
Answer: ID50 [2]: 0.16 mg/kg; inhibition [3]: 99%; inhibition in vivo at 50 mg/kg (Cavia porcellus [6]): 85%; inhibition in vivo at 1 mg/kg (Cavia porcellus [1]): 99%; ED50 (Cavia porcellus [4]): 6 mg/kg

Question: What does the source list for O=C(/C=C/C=C(c1cccc([N+](=O)[O-])c1)c1cccc([N+](=O)[O-])c1)NCCCCc1cccnc1?
Answer: ID50 [2]: 0.26 mg/kg; inhibition in vivo at 1 mg/kg (Cavia porcellus [1]): 78%

Question: With O=C(/C=C/C=C(c1cccc(Cl)c1)c1cccc(Cl)c1)NCCCCc1cccnc1 as the compound, how does the ID50 [2] read?
Answer: Its ID50 is 0.47 mg/kg.

Question: And the inhibition [3]?
Answer: Its inhibition is 23%.

Question: What about the inhibition in vivo at 1 mg/kg (Cavia porcellus [1]) of the same compound?
Answer: The inhibition in vivo at 1 mg/kg was 76%.

Question: Which ID50 [2] does the source give for COc1ccc(C(=C/C=C/C(=O)Nc2ccc(-c3cccnc3)cc2)c2ccc(OC)cc2)cc1 here?
Answer: Its ID50 is 0.15 mg/kg.

Question: What about the inhibition [3] of the same compound?
Answer: The inhibition was 82%.

Question: What about the inhibition in vivo at 50 mg/kg (Cavia porcellus [6]) of the same compound?
Answer: Its inhibition in vivo at 50 mg/kg is 77%.

Question: What about the inhibition in vivo at 1 mg/kg (Cavia porcellus [1]) of the same compound?
Answer: The inhibition in vivo at 1 mg/kg was 97%.

Question: And the ED50 (Cavia porcellus [4])?
Answer: The ED50 was 29 mg/kg.

Question: How did the IC50 [5] turn out when O=C(CC=C(c1ccccc1)c1ccccc1)NCCCCc1cccnc1 was run?
Answer: The IC50 was “Not Active”.

Question: Which inhibition in vivo at 1 mg/kg (Cavia porcellus [1]) does the source give for COc1ccc(C(=C/C=C/C(=O)NC(C)CCCc2ccc(C)nc2)c2ccc(OC)cc2)cc1 (stereo unspecified) here?
Answer: The inhibition in vivo at 1 mg/kg was 5%.

Question: O=C(/C=C/C=C(c1cccc(F)c1)c1cccc(F)c1)NCCCCc1cccnc1 was tested. Which ID50 [2] did it give?
Answer: The ID50 was 0.34 mg/kg.

Question: And the inhibition [3]?
Answer: The inhibition was 37%.

Question: What about the inhibition in vivo at 1 mg/kg (Cavia porcellus [1]) of the same compound?
Answer: The inhibition in vivo at 1 mg/kg was 71%.

Question: And the ED50 (Cavia porcellus [8])?
Answer: Its ED50 is 50 mg/kg.

Question: Which results are given for CCC/C(=C\C=C\C(=O)N[C@H](C)CCCc1cccnc1)c1ccc(OC)cc1?
Answer: ID50 [2]: 0.52 mg/kg; inhibition [3]: 9%; inhibition in vivo at 1 mg/kg (Cavia porcellus [1]): 86%

Question: Which ID50 [2] does the source give for C[C@H](CCCc1cccnc1)NC(=O)/C=C/C=C(c1ccc(F)cc1)c1ccc(F)cc1 here?
Answer: The ID50 was 0.31 mg/kg.

Question: What about the inhibition [3] of the same compound?
Answer: Its inhibition is 53%.

Question: And the inhibition in vivo at 1 mg/kg (Cavia porcellus [1])?
Answer: The inhibition in vivo at 1 mg/kg was 70%.

Question: With C[C@@H](CCCc1cccnc1)NC(=O)/C=C/C=C(c1cccc(F)c1)c1cccc(F)c1 as the compound, how does the inhibition [3] read?
Answer: Its inhibition is 46%.

Question: And the inhibition in vivo at 1 mg/kg (Cavia porcellus [1])?
Answer: Its inhibition in vivo at 1 mg/kg is 34%.

Question: COc1ccc(C(=C/C=C/C(=O)NC(C)CCCc2cccnc2C)c2ccc(OC)cc2)cc1 (stereo unspecified) was tested. Which ID50 [2] did it give?
Answer: The ID50 was 1.1 mg/kg.

Question: And the inhibition in vivo at 1 mg/kg (Cavia porcellus [1])?
Answer: The inhibition in vivo at 1 mg/kg was 47%.
